The values below come from patent EP4520824A1, “DEO[…] GENERATES FL[…] USES THEREOF” (Ústav organické chemie a biochemie Akademie ved Ceske …, priority 2023, dated 2025).

This test relates to chromogenic deoxyribozyme, optimized variant (Chro 4, SEQ ID NO: 39). The experiment in a line: Self-phosphorylation kinetics of chromogenic deoxyribozyme with 4-NPP (ligation assay). It counts as biochemical. Conditions: self-phosphorylation with 4-NPP as substrate; 200 mM KCl, 1 mM ZnCl2, 50 mM HEPES pH 7.4.

Turning to `O=[N+]([O-])c1ccc(OP(=O)(O)O)cc1` [4-NPP, 4-nitrophenyl phosphate], the catalytic efficiency is listed as ~10^3 M^-1 min^-1.
